Reference: patent US10757941B2, “Microbiocidal oxadiazole derivatives” (SYNGENTA PARTICIPATIONS AG, priority 2016, dated 2020)

How the values were obtained:
[1] = system: Puccinia recondita f. Sp. Tritici; assay: Fungicidal activity against Puccinia recondita f. sp. tritici / wheat / leaf disc preventative (brown rust); format: in vivo; settings: foliar, 200 ppm in the applied formulation, wheat leaf segments cv. Kanzler, preventative (inoculated 1 day after application), assessed 7 to 9 days after application, compared to untreated, read-out: disease control
Procedure: Leaf disks or leaf segments of various plant species are cut from plants grown in a greenhouse. The cut leaf disks or segments are placed in multiwell plates (24-well format) onto water agar. The leaf disks are sprayed with a test solution before (preventative) or after (curative) inoculation. Compounds to be tested are prepared as DMSO solutions (max. 10 mg/ml) which are diluted to the appropriate concentration with 0.025% Tween20 just before spraying. The inoculated leaf disks or segments are incubated under defined conditions (temperature, relative humidity, light, etc.) according to the respective test system. A single evaluation of disease level is carried out 3 to 14 days after inoculation, depending on the pathosystem. Percent disease control relative to the untreated check leaf disks or segments is then calculated. Example 1: Fungicidal Activity Against Puccinia recondita f. Sp. Tritici/Wheat/Leaf Disc Preventative (Brown Rust) Wheat leaf segments cv. Kanzler were placed on agar in multiwell plates (24-well format) and sprayed with the formulated test compound diluted in water. The leaf disks were inoculated with a spore suspension of the fungus 1 day after application. The inoculated leaf segments were incubated at 19° C. and 75% relative humidity (rh) under a light regime of 12 hours light/12 hours darkness in a climate cabinet and the activity of a compound was assessed as percent disease control compared to untreated when an appropriate level of disease damage appears in untreated check leaf segments (7 to 9 days after application). The following compounds at 200 ppm in the applied formulation give at least 80% disease control in this test when compared to untreated control leaf disks under the same conditions, which show extensive disease development.

[2] = system: Glomerella lagenarium (Colletotrichum lagenarium); assay: Fungicidal activity against Glomerella lagenarium (Colletotrichum lagenarium) liquid culture / cucumber / preventative (anthracnose); format: cell-based; settings: Colletotrichum orbiculare; 20 ppm in the applied formulation; liquid culture in PDB, 24° C.; inhibition of growth measured photometrically 3 to 4 days after application; compared to untreated; read-out: disease control
Procedure: Mycelia fragments or conidia suspensions of a fungus prepared either freshly from liquid cultures of the fungus or from cryogenic storage, are directly mixed into nutrient broth. DMSO solutions of the test compound (max. 10 mg/ml) are diluted with 0.025% Tween20 by a factor of 50 and 10 μl of this solution is pipetted into a microtiter plate (96-well format). The nutrient broth containing the fungal spores/mycelia fragments is then added to give an end concentration of the tested compound. The test plates are incubated in the dark at 24° C. and 96% relative humidity. The inhibition of fungal growth is determined photometrically after 2 to 7 days, depending on the pathosystem, and percent antifungal activity relative to the untreated check is calculated. Example 4: Fungicidal Activity Against Glomerella lagenarium (Colletotrichum lagenarium) Liquid Culture/Cucumber/Preventative (Anthracnose) Conidia of the fungus from cryogenic storage are directly mixed into nutrient broth (PDB—potato dextrose broth). After placing a (DMSO) solution of test compound into a microtiter plate (96-well format), the nutrient broth containing the fungal spores is added. The test plates are incubated at 24° C. and the inhibition of growth is measured photometrically 3 to 4 days after application. The following compounds at 20 ppm in the applied formulation give at least 80% disease control in this test when compared to untreated control under the same conditions, which show extensive disease development.

[3] = system: Uromyces viciae-fabael; assay: Fungicidal activity against Uromyces viciae-fabae / field bean / leaf disc preventative (faba-bean rust); format: in vivo; settings: foliar, 288 h, 100 ppm in the applied formulation, field bean leaf discs, preventative (inoculated two hours after application), assessed 12 days after application, compared to untreated, read-out: disease control
Procedure: Leaf disks or leaf segments of various plant species are cut from plants grown in a greenhouse. The cut leaf disks or segments are placed in multiwell plates (24-well format) onto water agar. The leaf disks are sprayed with a test solution before (preventative) or after (curative) inoculation. Compounds to be tested are prepared as DMSO solutions (max. 10 mg/ml) which are diluted to the appropriate concentration with 0.025% Tween20 just before spraying. The inoculated leaf disks or segments are incubated under defined conditions (temperature, relative humidity, light, etc.) according to the respective test system. A single evaluation of disease level is carried out 3 to 14 days after inoculation, depending on the pathosystem. Percent disease control relative to the untreated check leaf disks or segments is then calculated. Example 5: Fungicidal Activity Against Uromyces viciae-fabael Field Bean/Leaf Disc Preventative (Faba-Bean Rust) Field bean leaf discs are placed on water agar in multiwell plates (96-well format) and 10 μl of the formulated test compound diluted in acetone and a spreader pipetted onto the leaf disc. Two hours after application leaf discs are inoculated by spraying a spore suspension on the lower leaf surface. The leaf discs are incubated in a climate cabinet at 22° C. with 18 hour day and 70% relative humidity. The activity of a compound is assessed as percent disease control compared to untreated when an appropriate level of disease damage appears in untreated check leaf disks (12 days after application). The following compounds at 100 ppm in the applied formulation give at least 80% disease control in this test when compared to untreated control leaf discs under the same conditions, which show extensive disease development.

[4] = system: Phakopsora pachyrhizi; assay: Fungicidal activity against Phakopsora pachyrhizi / soybean / leaf disc preventative (Asian soybean rust); format: in vivo; settings: foliar, 200 ppm in the applied formulation, soybean leaf disks, preventative (inoculated one day after application), assessed 12 to 14 days after application, compared to untreated, read-out: disease control
Procedure: Leaf disks or leaf segments of various plant species are cut from plants grown in a greenhouse. The cut leaf disks or segments are placed in multiwell plates (24-well format) onto water agar. The leaf disks are sprayed with a test solution before (preventative) or after (curative) inoculation. Compounds to be tested are prepared as DMSO solutions (max. 10 mg/ml) which are diluted to the appropriate concentration with 0.025% Tween20 just before spraying. The inoculated leaf disks or segments are incubated under defined conditions (temperature, relative humidity, light, etc.) according to the respective test system. A single evaluation of disease level is carried out 3 to 14 days after inoculation, depending on the pathosystem. Percent disease control relative to the untreated check leaf disks or segments is then calculated. Example 3: Fungicidal Activity Against Phakopsora pachyrhizi/Soybean/Leaf Disc Preventative (Asian Soybean Rust) Soybean leaf disks are placed on water agar in multiwell plates (24-well format) and sprayed with the formulated test compound diluted in water. One day after application leaf discs are inoculated by spraying a spore suspension on the lower leaf surface. After an incubation period in a climate cabinet of 24-36 hours in darkness at 20° C. and 75% rh leaf disc are kept at 20° C. with 12 h light/day and 75% rh. The activity of a compound is assessed as percent disease control compared to untreated when an appropriate level of disease damage appears in untreated check leaf disks (12 to 14 days after application). The following compounds at 200 ppm in the applied formulation give at least 80% disease control in this test when compared to untreated control leaf disks under the same conditions, which show extensive disease development.

Row | SMILES | pest or weed control at 200 ppm [1] [%] | inhibition of growth at 20 ppm [2] [%] | pest or weed control at 100 ppm [3] [%] | pest or weed control at 200 ppm [4] [%]
1 | O=C(NCCCCc1ccccc1)c1ccc(-c2noc(C(F)(F)F)n2)c(F)c1 [Compound 1.1, 3-fluoro-N-(4-phenylbutyl)-4-[5-(trifluoromethyl)-1,2,4-oxadiazol-3-yl]benzamide] | ≥ 80 | ≥ 80 | ≥ 80 | –
2 | Cc1ccc(C)c(CNC(=O)c2ccc(-c3noc(C(F)(F)F)n3)c(F)c2)c1 [Compound 1.3, N-[(2,5-dimethyl-phenyl)methyl]-3-fluoro-4-[5-(trifluoromethyl)-1,2,4-oxadiazol-3-yl]benzamide] | ≥ 80 | – | ≥ 80 | ≥ 80
3 | O=C(NC1CCSCC1)c1ccc(-c2noc(C(F)(F)F)n2)c(F)c1 [Compound 1.7, 3-fluoro-N-tetrahydro-thiopyran-4-yl-4-[5-(trifluoromethyl)-1,2,4-oxadiazol-3-yl]benzamide] | – | – | ≥ 80 | –
4 | O=C(Nc1ccnc2ncnn12)c1ccc(-c2noc(C(F)(F)F)n2)c(F)c1 [Compound 1.9, 3-fluoro-N-([1,2,4]triazolo[1,5-a]pyrimidin-7-yl)-4-[5-(trifluoromethyl)-1,2,4-oxadiazol-3-yl]benzamide] | ≥ 80 | ≥ 80 | ≥ 80 | –
5 | CN1CCC2(CC1)CC(NC(=O)c1ccc(-c3noc(C(F)(F)F)n3)c(F)c1)C2 [Compound 1.11, 3-fluoro-N-(7-methyl-7-azaspiro[3.5]nonan-2-yl)-4-[5-(trifluoromethyl)-1,2,4-oxadiazol-3-yl]benzamide] | – | – | ≥ 80 | ≥ 80
6 | O=C(NC1CCc2ccccc21)c1ccc(-c2noc(C(F)(F)F)n2)c(F)c1 (centres unmarked) [Compound 1.15, 3-fluoro-N-indan-1-yl-4-[5-(trifluoromethyl)-1,2,4-oxadiazol-3-yl]benzamide] | ≥ 80 | – | ≥ 80 | ≥ 80
7 | CCOc1ccc(CN(C(=O)c2ccc(-c3noc(C(F)(F)F)n3)c(F)c2)C(C)C)cc1OCC [Compound 1.17, N-[(3,4-diethoxyphenyl)methyl]-3-fluoro-N-isopropyl-4-[5-(trifluoromethyl)-1,2,4-oxadiazol-3-yl]benzamide] | ≥ 80 | ≥ 80 | ≥ 80 | –
8 | O=C(c1ccc(-c2noc(C(F)(F)F)n2)c(F)c1)N(Cc1ccc2c(c1)OCO2)CC1OCCO1 [Compound 1.18, N-(1,3-benzodioxol-5-ylmethyl)-N-(1,3-dioxolan-2-ylmethyl)-3-fluoro-4-[5-(trifluoromethyl)-1,2,4-oxadiazol-3-yl]benzamide] | ≥ 80 | ≥ 80 | ≥ 80 | –
9 | CCOc1ccc(CN(CC2OCCO2)C(=O)c2ccc(-c3noc(C(F)(F)F)n3)c(F)c2)cc1OCC [Compound 1.19, N-[(3,4-diethoxyphenyl)methyl]-N-(1,3-dioxolan-2-ylmethyl)-3-fluoro-4-[5-(trifluoromethyl)-1,2,4-oxadiazol-3-yl]benzamide] | – | ≥ 80 | ≥ 80 | –
10 | CC1CCCC(C)N1CCNC(=O)c1ccc(-c2noc(C(F)(F)F)n2)c(F)c1 (centres unmarked) [Compound 1.21, N-[2-(2,6-dimethyl-1-piperidyl)ethyl]-3-fluoro-4-[5-(trifluoromethyl)-1,2,4-oxadiazol-3-yl]benzamide] | – | – | ≥ 80 | –
11 | CCC(C#N)(COc1ccc(C#N)cc1)NC(=O)c1ccc(-c2noc(C(F)(F)F)n2)c(F)c1 (centres unmarked) [Compound 1.24, N-[1-cyano-1-[(4-cyanophenoxy)methyl]propyl]-3-fluoro-4-[5-(trifluoromethyl)-1,2,4-oxadiazol-3-yl]benzamide] | ≥ 80 | – | – | –
12 | CCOC(=O)C(CC(F)(F)F)NC(=O)c1ccc(-c2noc(C(F)(F)F)n2)c(F)c1 (centres unmarked) [Compound 1.26, ethyl 4,4,4-trifluoro-2-[[3-fluoro-4-[5-(trifluoromethyl)-1,2,4-oxadiazol-3-yl]benzoyl]amino] butanoate] | ≥ 80 | – | ≥ 80 | –
13 | N#CCCN(CCC#N)C(=O)c1ccc(-c2noc(C(F)(F)F)n2)c(F)c1 [Compound 1.29, N,N-bis(2-cyanoethyl)-3-fluoro-4-[5-(trifluoromethyl)-1,2,4-oxadiazol-3-yl]benzamide] | – | – | ≥ 80 | –
14 | CC(C)C(C)(C#N)NC(=O)c1ccc(-c2noc(C(F)(F)F)n2)c(F)c1 (centres unmarked) [Compound 1.30, N-(1-cyano-1,2-dimethyl-propyl)-3-fluoro-4-[5-(trifluoromethyl)-1,2,4-oxadiazol-3-yl]benzamide] | ≥ 80 | ≥ 80 | – | –
15 | O=C(NCCCn1ccnc1)c1ccc(-c2noc(C(F)(F)F)n2)c(F)c1 [Compound 1.32, 3-fluoro-N-(3-imidazol-1-ylpropyl)-4-[5-(trifluoromethyl)-1,2,4-oxadiazol-3-yl]benzamide] | – | – | ≥ 80 | –
16 | O=C(Nc1ccccc1)c1ccc(-c2noc(C(F)(F)F)n2)c(F)c1 [Compound 1.33, 3-fluoro-N-phenyl-4-[5-(trifluoromethyl)-1,2,4-oxadiazol-3-yl]benzamide] | – | – | ≥ 80 | –
17 | O=C(NC1CC1c1ccccc1)c1ccc(-c2noc(C(F)(F)F)n2)c(F)c1 (centres unmarked) [Compound 1.34, 3-fluoro-N-(2-phenylcyclopropyl)-4-[5-(trifluoromethyl)-1,2,4-oxadiazol-3-yl]benzamide] | – | – | ≥ 80 | –
18 | CC(C)(C)CC(C)(C)NC(=O)c1ccc(-c2noc(C(F)(F)F)n2)c(F)c1 [Compound 1.37, 3-fluoro-N-(1,1,3,3-tetramethylbutyl)-4-[5-(trifluoromethyl)-1,2,4-oxadiazol-3-yl]benzamide] | – | ≥ 80 | ≥ 80 | –
